# Reference: PMC5461540, “MOB1 Mediated Phospho-recognition in the Core Mammalian Hippo Pathway” (Molecular & Cellular Proteomics : MCP, 2017)
# Numbering of substitutions follows the chain as printed. Like-named read-outs stand apart in the source and are kept apart here. Where a SMILES comes first, the peptide text is derived from it.
# Assays:
# [1] = molecular target: yeast Mob1; conditions: yeast Mob1 binding to Nud1 short linear phosphopeptide motif; cited from earlier work
# Description: Key to its function as a Hippo pathway activator is the ability of MOB1 to bind directly to MST1 and MST2 kinases. Recent structural studies provided key insight into the underlying mechanism of binding.
# [2] = molecular target: T1, MOB1A (Homo sapiens, UniProt Q9H8S9); assay: Fluorescence polarization peptide binding assay, MOB1A wild-type; conditions: FP, 20 nM FITC labeled peptide, pH 7.5
# T1 construct: MOB1A (2–216, NP_060691); 6xHis (N, cleaved yes); GST (N, cleaved yes); made in house; host or cells: E. coli BL21 (DE3) CodonPlus RIL
# T1 sequence (Q9H8S9 2-216): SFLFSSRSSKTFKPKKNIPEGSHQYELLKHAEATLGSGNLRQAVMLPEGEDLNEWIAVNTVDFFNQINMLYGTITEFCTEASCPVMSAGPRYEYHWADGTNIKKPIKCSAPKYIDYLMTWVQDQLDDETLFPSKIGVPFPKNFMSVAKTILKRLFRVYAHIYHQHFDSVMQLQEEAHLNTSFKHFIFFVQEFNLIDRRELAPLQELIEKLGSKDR
# Description: (§1) Human MST1 kinase domain (amino acids 2–326, corresponding to NCBI RefSeq protein NP_006273), MST2 kinase domain (2–322, NP_006272), MOB1B (2–216, NP_001231695), MOB1A (2–216, NP_060691) wild-type and indicated MOB1A mutant proteins, MOB2 (2–237, NP_001165694), MOB3A (2–217, NP_570719), MOB3B (2–216, NP_079037), MOB3C (2–216, NP_660322), MOB4 (2–225, NP_056202), MOB4^RRR→AAA (2–225), and yeast Mob1 (79–314, NP_012160) were expressed in E. coli BL21 (DE3) CodonPlus RIL cells as N-terminal dual 6xhistidine (HIS) and glutathione S-transferase (GST), Tobacco Etch Virus (TEV) cleavable, fusion proteins using a modified pETM-30 vector. MOB wild-type and mutants were purified in batch on glutathione-Sepharose resin (GE Healthcare, Uppsala, Sweden) and eluted by cleavage from the affinity tags with HIS tagged TEV protease. TEV protease was removed from the eluted protein by subtractive immobilized-metal affinity chromatography. Cleaved protein was then concentrated and buffer exchanged by size exclusion chromatography (SEC) using a Superdex 75 120 ml column (GE Healthcare). For GST pull-downs and Far-Western analysis, the TEV cleavage step was omitted.
# MST1 phosphopeptides encompassing pT353 and pT367 (15-mers) used for crystallization and FITC labeled nonphosphorylated and phosphorylated MST1 T353 peptides, T367 peptides, T329-T340 peptides, T380-T387 peptides and optimized Nud1-like peptides for fluorescence polarization binding experiments were purchased from Biomatik (Cambridge, ON). Peptide sequences used for crystallization studies are: T353, […](p)TMIEH and T367, […](p)TMVINA. All peptides used for biophysical studies are listed in supplemental Table S1.
# Twelve-point fluorescence polarization binding measurements were performed in triplicate in 384-well plate format using an Analyst HT (Artisan-Scientific, Sunnyvale, CA) reader. Each 20 μl measurement condition contained 20 nM FITC labeled MST1 peptide or Nud1-like peptide and the indicated concentration of MOB proteins in 25 mM HEPES pH 7.5, 150 mM NaCl, 2 mM DTT, and 1 mg/ml bovine serum albumin (BSA). Kd values were obtained by fitting the results to a one site-specific binding model using GraphPad Prism.
# [3] = molecular target: T2, MOB1A KRR→3A mutant (Homo sapiens, UniProt Q9H8S9, K153A/R154A/R157A); assay: Fluorescence polarization peptide binding assay, MOB1A KRR→3A mutant (K153, R154, R157 to alanine); conditions: Fig. 2B, MOB1A KRR→3A (K153, R154, R157 to alanine); FP, 20 nM FITC labeled peptide, pH 7.5; n = 3; N.D. = Kd could not be determined
# T2 construct: MOB1A (2–216, NP_060691) wild-type and indicated MOB1A mutant proteins; 6xHis (N, cleaved yes); GST (N, cleaved yes); made in house; host or cells: E. coli BL21 (DE3) CodonPlus RIL
# T2 sequence (Q9H8S9 2-216 K153A/R154A/R157A): T1 sequence (Q9H8S9 2-216) with K152A, R153A, R156A
# Description: as §1, with “TEV protease was removed from the eluted protein by subtractive immobilized-metal affinity chromatography. Cleaved protein was then concentrated and buffer exchanged by size exclusion chromatography (SEC) using a Superdex 75 120 ml column (GE Healthcare). For GST pull-downs and Far-Western analysis, the TEV cleavage step was omitted.” left out
# (§2) MST1 phosphopeptides encompassing pT353 and pT367 (15-mers) used for crystallization and FITC labeled nonphosphorylated and phosphorylated MST1 T353 peptides, T367 peptides, T329-T340 peptides, T380-T387 peptides and optimized Nud1-like peptides for fluorescence polarization binding experiments were purchased from Biomatik (Cambridge, ON). […]
# (§3) Twelve-point fluorescence polarization binding measurements were performed in triplicate in 384-well plate format using an Analyst HT (Artisan-Scientific, Sunnyvale, CA) reader. […]
# [4] = molecular target: T3, MOB3A (Homo sapiens, UniProt Q96BX8); assay: Fluorescence polarization peptide binding assay, MOB3A; conditions: Fig. 5A, FP, 20 nM FITC labeled peptide, pH 7.5, mean ± S.E. (n = 3), read-out: Kd, μM (to MST1 pT367 peptide)
# T3 construct: MOB3A (2–217, NP_570719); 6xHis (N, cleaved yes); GST (N, cleaved yes); made in house; host or cells: E. coli BL21 (DE3) CodonPlus RIL
# T3 sequence (Q96BX8 2-217): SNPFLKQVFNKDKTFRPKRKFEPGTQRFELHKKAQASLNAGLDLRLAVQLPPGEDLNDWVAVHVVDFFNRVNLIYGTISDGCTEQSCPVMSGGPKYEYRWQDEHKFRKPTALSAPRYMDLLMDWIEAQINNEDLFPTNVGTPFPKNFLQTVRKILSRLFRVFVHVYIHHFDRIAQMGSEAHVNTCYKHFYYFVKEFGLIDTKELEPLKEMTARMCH
# Description: as §1, with “TEV protease was removed from the eluted protein by subtractive immobilized-metal affinity chromatography. Cleaved protein was then concentrated and buffer exchanged by size exclusion chromatography (SEC) using a Superdex 75 120 ml column (GE Healthcare). For GST pull-downs and Far-Western analysis, the TEV cleavage step was omitted.” left out
# as §2, §3
# [5] = molecular target: T4, MOB3B (Homo sapiens, UniProt Q86TA1); assay: Fluorescence polarization peptide binding assay, MOB3B; conditions: Fig. 5A, FP, 20 nM FITC labeled peptide, pH 7.5, mean ± S.E. (n = 3), read-out: Kd, μM (to MST1 pT367 peptide)
# T4 construct: MOB3B (2–216, NP_079037); 6xHis (N, cleaved yes); GST (N, cleaved yes); made in house; host or cells: E. coli BL21 (DE3) CodonPlus RIL
# T4 sequence (Q86TA1 2-216): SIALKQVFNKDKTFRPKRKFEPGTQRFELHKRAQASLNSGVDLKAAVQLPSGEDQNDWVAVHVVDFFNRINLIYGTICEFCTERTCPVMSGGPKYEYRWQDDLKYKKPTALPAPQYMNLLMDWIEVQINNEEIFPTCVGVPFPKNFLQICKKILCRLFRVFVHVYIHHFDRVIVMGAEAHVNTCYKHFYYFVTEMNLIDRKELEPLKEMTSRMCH
# Description: as §1, with “TEV protease was removed from the eluted protein by subtractive immobilized-metal affinity chromatography. Cleaved protein was then concentrated and buffer exchanged by size exclusion chromatography (SEC) using a Superdex 75 120 ml column (GE Healthcare). For GST pull-downs and Far-Western analysis, the TEV cleavage step was omitted.” left out
# as §2, §3
# [6] = molecular target: T5, MOB3C (Homo sapiens, UniProt Q70IA8); assay: Fluorescence polarization peptide binding assay, MOB3C; conditions: Fig. 5A, FP, 20 nM FITC labeled peptide, pH 7.5, mean ± S.E. (n = 3), read-out: Kd, μM (to MST1 pT367 peptide)
# T5 construct: MOB3C (2–216, NP_660322); 6xHis (N, cleaved yes); GST (N, cleaved yes); made in house; host or cells: E. coli BL21 (DE3) CodonPlus RIL
# T5 sequence (Q70IA8 2-216): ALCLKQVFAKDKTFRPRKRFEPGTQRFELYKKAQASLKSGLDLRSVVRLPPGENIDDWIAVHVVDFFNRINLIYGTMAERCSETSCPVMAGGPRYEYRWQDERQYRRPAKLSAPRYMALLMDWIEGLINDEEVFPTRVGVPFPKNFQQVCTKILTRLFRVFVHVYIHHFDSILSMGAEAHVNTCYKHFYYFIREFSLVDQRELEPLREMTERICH
# Description: as §1, with “TEV protease was removed from the eluted protein by subtractive immobilized-metal affinity chromatography. Cleaved protein was then concentrated and buffer exchanged by size exclusion chromatography (SEC) using a Superdex 75 120 ml column (GE Healthcare). For GST pull-downs and Far-Western analysis, the TEV cleavage step was omitted.” left out
# as §2, §3
# [7] = molecular target: T6, MOB4 (Homo sapiens, UniProt Q9Y3A3); assay: Fluorescence polarization peptide binding assay, MOB4; conditions: Fig. 5A, FP, 20 nM FITC labeled peptide, pH 7.5, mean ± S.E. (n = 3), read-out: Kd, μM (to MST1 pT367 peptide)
# T6 construct: MOB4 (2–225, NP_056202); 6xHis (N, cleaved yes); GST (N, cleaved yes); made in house; host or cells: E. coli BL21 (DE3) CodonPlus RIL
# T6 sequence (Q9Y3A3 2-225): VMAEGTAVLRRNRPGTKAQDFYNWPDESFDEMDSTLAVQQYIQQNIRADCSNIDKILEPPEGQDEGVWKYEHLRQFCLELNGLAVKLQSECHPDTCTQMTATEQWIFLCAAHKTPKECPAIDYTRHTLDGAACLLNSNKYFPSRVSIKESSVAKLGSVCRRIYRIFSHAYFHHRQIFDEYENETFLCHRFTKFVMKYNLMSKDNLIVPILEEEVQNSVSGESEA
# Description: as §1, with “TEV protease was removed from the eluted protein by subtractive immobilized-metal affinity chromatography. Cleaved protein was then concentrated and buffer exchanged by size exclusion chromatography (SEC) using a Superdex 75 120 ml column (GE Healthcare). For GST pull-downs and Far-Western analysis, the TEV cleavage step was omitted.” left out
# as §2, §3
# [8] = test system: GST-MOB1B; assay: Peptide array Far-Western overlay with GST-MOB1B; format: binding, human; conditions: cellulose-bound 15-mer peptide SPOT array probed with 1 μg GST-MOB1B at 20 °C overnight, anti-GST HRP detection
# Procedure: Cellulose-bound peptide arrays were prepared employing Fmoc solid phase peptide synthesis using a MultiPep-RSi-Spotter (INTAVIS, Köln, Germany) according to the SPOT synthesis method provided by the manufacturer, and previously described ([29]). Peptides were synthesized on amino-functionalized cellulose membranes (Whatman™ Chromatography paper Grade 1CHR, GE Healthcare Life Sciences #3001–878) and the presence of SPOTed peptides was confirmed by ultraviolet light (UV, λ = […]). Peptide sequences were chosen for each of the phosphorylated sites within the sequence encompassing residues 327 to 487 of MST1 as reported in PhosphositePlus (31/01/2014, ref 30). In addition, 15 amino acid-long peptides spanning the entire MST1 linker region (aa 327–487) were also synthesized in both phospho- and nonphosphorylated versions (for every serine, threonine, or tyrosine position; supplemental Fig. S1). Subsequent arrays were generated by alanine scanning from the pT353 and pT367 peptide sequences. The peptide arrays were soaked in 100% ethanol and blocked in 5% milk in H2O for 6 h at 20 °C. One microgram of GST-MOB1B (or GST alone) was used to probe the arrays at 20 °C overnight. Following washes with PBS plus 0.1% Tween-20, the arrays were blocked again in 5% milk for 1 h. […]
# [9] = recombinant wild-type MOB1A, read-out: Kd
molecule,measurement,setting,value
TVLNNYSpTVHQKVPS,Kd,[1],2400 nM
CC[C@H](C)[C@H](NC(=O)[C@H](CCSC)NC(=O)[C@@H](NC(=O)[C@H](CC(N)=O)NC(=O)[C@H](C)NC(=O)CNC(=O)[C@H](CC(=O)O)NC(=O)[C@@H](NC(=O)[C@H](CCSC)NC(=O)[C@@H](NC(=O)[C@H](CO)NC(=O)[C@H](C)NC(=O)[C@@H](N)C(C)C)[C@@H](C)O)[C@@H](C)O)[C@@H](C)OP(=O)(O)O)C(=O)N[C@@H](CCC(=O)O)C(=O)N[C@@H](Cc1c[nH]cn1)C(=O)O [pT353] (HELM PEPTIDE1{V.A.S.T.M.T.D.G.A.N.[C[C@@H](OP(=O)(O)O)[C@H](N[*:1])C(=O)[*:2]].M.I.E.H}$$$$V2.0),Kd,[2]; [9],0.28 µM
same,Kd,[3],no measurable binding
CC[C@H](C)[C@H](NC(=O)[C@@H](NC(=O)[C@H](CCSC)NC(=O)[C@@H](NC(=O)CNC(=O)[C@H](CC(C)C)NC(=O)[C@H](CCC(N)=O)NC(=O)[C@H](CO)NC(=O)[C@@H]1CCCN1C(=O)[C@H](CC(C)C)NC(=O)[C@@H](NC(=O)[C@H](CC(=O)O)NC(=O)[C@@H](N)CC(=O)O)[C@@H](C)O)[C@@H](C)OP(=O)(O)O)C(C)C)C(=O)N[C@@H](CC(N)=O)C(=O)N[C@@H](C)C(=O)O [pT367] (HELM PEPTIDE1{D.D.T.L.P.S.Q.L.G.[C[C@@H](OP(=O)(O)O)[C@H](N[*:1])C(=O)[*:2]].M.V.I.N.A}$$$$V2.0),Kd,[2]; [9],0.68 µM
same,Kd,"[2]; Fig. 5A, MOB1A, mean ± S.E. (n = 3), read-out: Kd, μM (to MST1 pT367 peptide)",0.67 ± 0.09 µM
same,Kd,[3],no measurable binding
same,Kd,[4],2 to 3 µM
same,Kd,[5],2 to 3 µM
same,Kd,[6],2 to 3 µM
same,Kd,[7],12.2 µM
AKPSFLEYFEQKEKE [MST1 residues 391 to 405],binding signal in Far-Western peptide array,[8],sufficient to bind to MOB1B
